Data on one compound can be found in US11591311B2, “3-oxo-6-heteroaryl-2-phenyl-2,3-dihydropyridazine-4-carboxamides” (priority 2017, dated 2023).

The target of assay [1] is T1, AHR (Homo sapiens, UniProt P35869).
T1 construct: U87 glioblastoma cells (ATCC) endogenously expressing AHR; host or cells: U87 glioblastoma cells, stably transfected with DRE-firefly luciferase and renilla reporter constructs
T1 sequence (P35869 11-848): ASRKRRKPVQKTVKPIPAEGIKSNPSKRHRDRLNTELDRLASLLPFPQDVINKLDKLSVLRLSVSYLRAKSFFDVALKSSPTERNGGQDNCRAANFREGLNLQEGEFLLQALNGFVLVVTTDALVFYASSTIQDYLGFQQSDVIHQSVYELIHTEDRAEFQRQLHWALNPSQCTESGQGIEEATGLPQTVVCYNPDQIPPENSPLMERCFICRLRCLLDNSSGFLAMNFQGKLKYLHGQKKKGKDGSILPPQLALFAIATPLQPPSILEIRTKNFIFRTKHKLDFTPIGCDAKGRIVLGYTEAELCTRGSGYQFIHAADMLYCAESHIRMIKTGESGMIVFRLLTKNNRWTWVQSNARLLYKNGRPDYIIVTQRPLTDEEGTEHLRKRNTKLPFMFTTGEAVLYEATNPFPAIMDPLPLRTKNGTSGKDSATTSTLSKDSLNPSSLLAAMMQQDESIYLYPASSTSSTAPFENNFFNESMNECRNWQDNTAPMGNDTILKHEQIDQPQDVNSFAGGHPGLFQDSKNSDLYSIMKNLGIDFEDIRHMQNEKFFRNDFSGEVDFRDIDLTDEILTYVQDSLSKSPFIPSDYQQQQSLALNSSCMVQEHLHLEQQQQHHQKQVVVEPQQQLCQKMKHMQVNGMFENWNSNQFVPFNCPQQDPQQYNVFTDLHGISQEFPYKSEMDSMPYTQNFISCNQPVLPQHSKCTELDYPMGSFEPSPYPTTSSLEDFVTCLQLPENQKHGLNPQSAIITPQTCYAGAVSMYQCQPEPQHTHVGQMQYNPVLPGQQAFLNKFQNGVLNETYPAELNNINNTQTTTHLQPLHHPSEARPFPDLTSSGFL
The assay is described as follows: In vitro assay 1: AHR-luc transactivation assay, antagonism in human cell line (U87 glioblastoma cells prestimulated with kynurenic acid). In kind it is cell-based. The method, then: Transactivation Assay in Human Cell Line (In Vitro Assays 1 and 2)
Transactivation assays were carried out in U87 glioblastoma cells (ATCC) endogenously expressing AHR. In addition the cells were stably transfected with an AHR inducible firefly luciferase reporter gene construct that carried AHR-binding sites (DRE) in its promoter and a renilla reporter gene construct with constitutively active promoter. Kynurenic acid is an endogenous AHR activating ligand and was used to prestimulate test cells prior to testing the antagonistic properties of compounds.
In Vitro Assay 1: Antagonism in Human Cell Line
Cells in medium (tryptophan free RPMI, 1% FCS, 2 mM Glutamine) supplemented with 150 μM kynurenic acid were grown for 20 hours in absence (negative control) or presence of increasing concentrations of test compounds (typical dilutions: 72 pmol/L, 0.25 nmol/L, 0.89 nmol/L; 3.1 nmol/L, 11 nmol/L, 38 nmol/L, 130 nmol/L, 470 nmol/L, 1.6 μmol/L, 5.7 μmol/L and 20 μmol/L in duplicates). As positive inhibition control cells supplemented with 150 μM kynurenic acid were incubated in presence of 5 μM Staurosporin. Normalization was done by positive and negative controls.
Firefly luciferase and Renilla activity was determined by the DualGlo Luciferase Assay System (Promega, #2920). Renilla activity was used to assess toxic effects of compounds.

For assay [2], the target named is T1, AHR. The assay is described as follows: In vitro assay 3: AHR-regulated CYP1A1 expression in human cell line (U937, qPCR). In kind it is cell-based. The conditions noted are these: human monocytic U937 cells, CYP1A1 expression induced with 200 μM KA, 6 hours, quantitative PCR; read-out: Assay 3: Hum CYP1A1 Antagonism IC50. The method, then:
In Vitro Assay 3: AHR-Regulated CYP1A1 Expression in Human Cell Line
To assess the AHR inhibitory activity of the substances described in this application, the ability thereof to antagonise ligand-induced AHR gene regulation in a dose-dependent manner was quantified. For this purpose, quantitative PCR analysis was used to determine expression of the AHR-regulated gene CYP1A1 in a human monocytic U937 cell line upon stimulation with 200 μM KA in the presence and absence of AHR inhibitor. […] CYP1A1 expression was induced with 200 μM KA (positive control) in the presence or absence of the substances for 6 hours. Human U937 cells were typically incubated with eight different concentrations of the substances (1 nM, 3 nM, 10 nM, 30 nM, 100 nM, 300 nM, 1 μM and 3 μM) and analyzed in duplicate on the same microtitre plate. […] Unstimulated cells were used as the negative control. Taqman probes for human CYP1A1 (Hs01054797_g1) and human HPRT (Hs02800695_m1) were used to analyze fold expression of CYP1A1 of HPRT. Quantitation was performed on a Taqman SDS7900HT.

Molecules are shown by their SMILES. pIC50: −log10 of the molar value.

On to `C[C@@H](NC(=O)c1cc(-c2ccc(C(F)F)nc2)nn(-c2cccc(F)c2)c1=O)C(C)(C)O` [Example 22, 6-[6-(Difluoromethyl)pyridin-3-yl]-2-(3-fluorophenyl)-N-[(2R)-3-hydroxy-3-methylbutan-2-yl]-3-oxo-2,3-dihydropyridazine-4-carboxamide], for which the figures for the pIC50 at AHR [1] and on AHR [2] were 7.20 and 6.73, respectively.

By pIC50 is commonly meant −log10 of the IC50, conventionally taken in molar units.
